Test results published in publication PMC9189845, “Structure–Activity Relationships of 8-Hydroxyquinoline-Derived Mannich Bases with Tertiary Amines Targeting Multidrug-Resistant Cancer” (Journal of Medicinal Chemistry, 2022).
Where two headings read alike, the source gives them in different places.

How the values were obtained:
[1] = UV-visible spectrophotometric titrations (pKa); assay type: physicochemical; details: 25 °C; for pKa: water with 0.2% (v/v) DMSO
Protocol: Spectrophotometrical determination of pKa values was performed as previously reported.[20],[50] An Agilent Cary 8454 diode array spectrophotometer was used to record the UV–visible spectra in the interval 200–800 nm. The path length was between 1 and 5 cm. The spectrophotometric titrations were performed in water with 0.2% (v/v) DMSO on samples containing the compounds at 2–50 μM in the pH range from 2 to 11.5 at 25.0 ± 0.1 °C at an ionic strength of 0.10 M (KCl). Proton dissociation constants and the individual spectra of the species in the different protonation states were calculated with the computer program PSEQUAD.[62]

MES-SA cells = test: PrestoBlue viability assay, MES-SA cells; details: Homo sapiens, MES-SA
MES-SA/Dx5 cells = test: PrestoBlue viability assay, MES-SA/Dx5 cells (MDR, P-gp positive); details: for IC50: Homo sapiens; for SR: selectivity ratio MES-SA vs MES-SA/Dx5, without TQ; for SR_TQ: selectivity ratio MES-SA vs MES-SA/Dx5, with TQ
A431 cells = test: PrestoBlue viability assay, A431 cells
A431-B1 cells = test: PrestoBlue viability assay, A431-B1 (A431-ABCB1) cells
[2] = 0.2% DMSO, I = 0.10 M KCl, read-out: pKa (OH), experimentally determined
[3] = read-out: pKa (NpiperaziniumH+ closer to quinoline ring), experimentally determined
[4] = quinolinium nitrogen, I = 0.10 M KCl, read-out: pKa (NquinH+), experimentally determined
[5] = 72 h, read-out: IC50 / μM MES-SA, absence of TQ, 72 h incubation
[6] = read-out: pIC50 value MES-SA, MES-SA cells, without TQ (converted)
[7] = MES-SA/Dx5, 72 h, read-out: IC50 / μM MES-SA/Dx5, absence of TQ, 72 h incubation
[8] = MES-SA/Dx5, read-out: pIC50 value MES-SA/Dx5, MES-SA/Dx5 cells, without TQ (converted)
[9] = piperidinium / pyrrolidinium / morpholinium N, read-out: pKa (other; N+amH alkylamine nitrogen), experimentally determined
[10] = Homo sapiens, A-431, 72 h, read-out: IC50 / µM A431, 72 h incubation
[11] = Homo sapiens, A-431, read-out: pIC50 A431, SARM figure (converted)
[12] = read-out: IC50 / μM MES-SA (values in parentheses), presence of 1 μM P-gp inhibitor tariquidar (TQ)
[13] = read-out: pIC50 value MES-SA+TQ, MES-SA cells, with TQ (converted)
[14] = 72 h, read-out: IC50 / µM A431-B1, 72 h incubation
[15] = read-out: pIC50 A431-B1, SARM figure (converted)
[16] = MES-SA/Dx5, read-out: IC50 / μM MES-SA/Dx5 (values in parentheses), presence of 1 μM P-gp inhibitor tariquidar (TQ)
[17] = MES-SA/Dx5, read-out: pIC50 value MES-SA/Dx5 + TQ, MES-SA/Dx5 cells, with TQ (converted)

SMILES	pKa [1, 2]	pKa [1, 4]	IC50 (MES-SA cells; [5])	IC50 (MES-SA cells; [6])	IC50 (MES-SA/Dx5 cells; [7])	IC50 (MES-SA/Dx5 cells; [8])	SR (MES-SA/Dx5 cells)	IC50 (A431 cells; [10])	IC50 (A431 cells; [11])	IC50 (MES-SA cells; [12])	IC50 (MES-SA cells; [13])	IC50 (A431-B1 cells; [14])	IC50 (A431-B1 cells; [15])	IC50 (MES-SA/Dx5 cells; [16])	IC50 (MES-SA/Dx5 cells; [17])	SR_TQ (MES-SA/Dx5 cells)	other results
Oc1ccc(CN2CCN(c3ccccc3)CC2)c2cccnc12 [Compound 57]	8.88 ± 0.03	3.63 ± 0.03	3.67 ± 0.35 µM	3.63 µM	4.19 ± 0.15 µM	4.17 µM	0.88										pKa [1, 3]: 6.69 ± 0.03
CCN1CCN(Cc2ccc(O)c3ncccc23)CC1 [Compound 55]	9.67 ± 0.03	4.94 ± 0.03	17.7 ± 3.14 µM	17.4 µM	21.38 ± 0.1 µM	21.4 µM	0.83										pKa ([1]; read-out: pKa (NpiperaziniumH+ at methyl / N-ethyl), experimentally determined): 5.48 ± 0.03; pKa [1, 3]: 2.6 ± 0.03
Oc1ccc(CN2CCCCC2)c2cccnc12 [Compound 47]	8.45 ± 0.03	3.83 ± 0.03	7.45 ± 0.06 µM	7.41 µM	4.36 ± 0.4 µM	4.37 µM	1.71										pKa [1, 9]: 10.23 ± 0.03
Oc1c(C(c2ccccc2)N2CCCCC2)cc(Cl)c2cccnc12 (centres unmarked) [Compound 97]	6.46 ± 0.03	1.7 ± 0.1	14.9 ± 0.18 µM	14.8 µM	14 ± 0.15 µM	13.8 µM	1.06										pKa [1, 9]: 10.75 ± 0.03
Oc1c(CN2CCCc3ccccc32)ccc2cccnc12 [Compound 79]	9.98 ± 0.03	4.45 ± 0.03	10.1 ± 0.38 µM	10 µM	13.5 ± 0.7 µM	13.5 µM	0.75										pKa (other; N+amH alkylamine nitrogen), experimentally determined ([1]; piperidinium / pyrrolidinium / morpholinium N, water): 1.69; pKa [1, 9]: 1.7 ± 0.1
CCOCc1cc(CN2CCN(c3ccccc3)CC2)c(O)c2ncccc12 [Compound 40]			1.27 ± 0.15 µM	1.26 µM	0.34 ± 0.04 µM	0.339 µM	3.72	6.24 ± 1.95 µM	5.89 µM	1.62 ± 0.005 µM	1.62 µM	1.94 ± 0.19 µM	1.91 µM	1.05 ± 0.1 µM	1.05 µM	1.54	
CCOCc1cc(CN2CCCCC2)c(O)c2ncccc12 [Compound 22]			8.77 ± 1.07 µM	8.71 µM	0.79 ± 0.14 µM	0.776 µM	11.12	25.2 ± 8.88 µM	23.4 µM	9.13 ± 0.32 µM	9.12 µM	4.17 ± 1.49 µM	3.89 µM	7.08 ± 0.23 µM	7.08 µM	1.29	
CC(C)OCc1cc(CN2CCOCC2)c(O)c2ncccc12 [Compound 33]			3.12 ± 0.6 µM	3.09 µM	1.74 ± 0.29 µM	1.7 µM	1.79	13.2 ± 6.23 µM	12 µM			4.76 ± 0.23 µM	4.79 µM				
CCCOCc1cc(CN2CCN(C)CC2)c(O)c2ncccc12 [Compound 37]			13.5 ± 0.86 µM	13.5 µM	3.24 ± 0.19 µM	3.24 µM	4.17	19.9 ± 9.14 µM	18.2 µM	12.3 ± 0.28 µM	12.3 µM	6.19 ± 1.73 µM	5.89 µM	7.41 ± 0.01 µM	7.41 µM	1.66	
Oc1c(C(c2ccccn2)N2CCCC2)cc(Cl)c2cccnc12 (centres unmarked) [Compound 90]			12 ± 1.5 µM	12 µM	6.3 ± 0.15 µM	6.31 µM	1.91		49 µM		5.89 µM		13.2 µM		3.31 µM	1.78	
COCc1cc(CN2CCCC2)c(O)c2ncccc12 [Compound 17]			11.1 ± 1.78 µM	11 µM	1.37 ± 0.26 µM	1.35 µM	8.09	53.2 ± 6.49 µM	52.5 µM	10.5 ± 0.17 µM	10.5 µM	4.05 ± 0.07 µM	4.07 µM	3.59 ± 0.53 µM	3.55 µM	2.92	
CN1CCN(C(c2ccccn2)c2cc(Cl)c3cccnc3c2O)CC1 (centres unmarked) [Compound 114]			16 ± 1.31 µM	15.8 µM	13.9 ± 0.46 µM	13.8 µM	1.15		49 µM				17.4 µM				
COCc1cc(CN2CCN(c3ccccc3)CC2)c(O)c2ncccc12 [Compound 39]			1.08 ± 0.15 µM	1.07 µM	0.48 ± 0.07 µM	0.479 µM	2.23	9.99 ± 4.76 µM	8.91 µM	1.2 ± 0.05 µM	1.2 µM	2.33 ± 0.35 µM	2.29 µM	0.85 ± 0.08 µM	0.851 µM	1.41	
CCCCOCc1cc(CN2CCN(C)CC2)c(O)c2ncccc12 [Compound 10]			7.23 ± 0.14 µM	7.24 µM	2.12 ± 0.15 µM	2.14 µM	3.4	11.2 ± 0.37 µM	11.2 µM	5 µM	5.01 µM	4.57 ± 0.2 µM	4.57 µM	3.92 µM	3.8 µM	1.28	IC50 (A431 cells; read-out: IC50 / µM A431, 72 h incubation): 11.2 ± 0.83 µM
Oc1c(CN2CCCCCC2)cc(Cl)c2cccnc12 [Compound 53]			2.76 ± 0.14 µM	2.75 µM	0.33 ± 0.06 µM	0.324 µM	8.4	5.57 ± 1.08 µM	5.5 µM	2.64 ± 0.27 µM	2.63 µM	2.94 ± 1.69 µM	2.57 µM	2 ± 0.19 µM	2 µM	1.32	
